Patent publication US20200239587A1, “SENSITIZATION OF TUMORS TO THERAPIES THROUGH ENDOGLIN ANTAGONISM” (Cedars-Sinai Medical Center, priority 2016, published 2020)
“Also recorded” adds a separate entry of the source.

Legend:
Assay type in all cases: cell-based, human
CW22Rv1 cells [1] = test: Seahorse-XF mito-stress test
Procedure: Cells were analyzed for mito-stress test by Seahorse-XF 168 hours following 4 Gy of radiation in the presence of IgG or TRC105. FIG. 26A) Basal respiration, non-mito respiration, proton leak, spare respiratory capacity, FIG. 26B) extracellular acidification rate (ECAR) and FIG. 26C) mitochondrial dependent ATP production were quantitated using Wave 2.3.0 analysis. Data are reported as mean+/−S.D. of a representative experiment (n=5) of 3 independent experiments. FIGS. 26A-26C, the first/left column depicts 0Gy+IgG, the second column depicts 0Gy+TRC105, the third column depicts 4Gy+IgG and the last/right column depicts 4Gy+TRC105. FIG. 26D) 22Rv1 cells treated with IgG, TRC105 or nicotinamide were irradiated (4 Gy). Total cellular ATP was measured 0, 24, 72, 120, and 168 hours post radiation. Within each group, the left column is IgG, middle column is TRC105 and the right column is nicotinamide. Data are reported as mean+/−S.D. of 3 independent experiments. (***p<0.001, ****p<0.0001).

[2] = tested on: CW22Rv1 cells in 3D co-culture with mouse prostatic fibroblasts; test: 3D co-culture epithelial proliferation, EpCam and Ki-67 FACS
Procedure: A modified version of the 3D organotypic co-culture system was performed in a collagen matrix similar to that previously reported (Stark et al., 1999, J Invest Dermatol 112, 681-691). Collagen matrix gels were prepared by mixing five volumes of rat tail collagen I with two volumes of matrigel (NCI), one volume of 10× DMEM medium (GE Healthcare Life Sciences), and one volume of FBS (Atlanta Biologicals), Rv1 and primary mouse prostatic fibroblasts were combined in a 1:3 ratio. Nylon squares were coated with collagen and placed on metal grids in a 6-well plate. Gel plugs (150 μl) were transferred onto the nylon squares and media was added to the level of the nylon mesh. After 72 hours, the cells were dissociated from the matrix with collagenase and dispersed for FACS analysis.
FACS experiments were performed with eBiosciences antibodies: anti-human Stro-1-FITC (340105), anti-human CD90-PE (12-0909-42), anti-human CD105-APC (17-1057-41), anti-mouse CD105-APC (17-1051-82), anti-human CD117-PE-Cy7 (15-1178-41), anti-human Ki67-PECy7 (25-5699-41), and anti-human EpCAM-PE (12-9326-41). All events were acquired on a BD LSRII flow cytometer in the Cedars-Sinai Medical Center FACS core installed with BD FACSDiva software. Files were analyzed using FlowJo software v10.2. EpCAM positive cells were used to identify the CW22Rv1 epithelia in three-dimensional (3D) co-cultures and further gated for CD105 or Ki67 positive cells.
CW22Rv1, C42B, and PC3 cells from ATCC were expanded as directed. Prostatectomy specimens from Cedars-Sinai Medical Center or the Greater Los Angeles Veterans Affairs were cultured to generate NAF and CAF cells using the same method, as C57BL/6 mouse wild-type prostatic fibroblasts were grown as previously reported (Franco et al., 2011, Cancer research 71, 1272-1281; Kiskowski et al., 2011, Cancer research 68, 4709-4718). TRC105 and M1043 were provided by TRACON Pharmaceuticals, Inc. (San Diego, Calif.). Enzalutamide (Xtandi) was purchased from Medivation (San Francisco, Calif.).

22Rv1 cells = test: COMET assay; conditions: irradiated
Procedure: (§1) 22Rv1 were pre-treated with 1 μg/ml TRC105 24 hours prior to irradiation with 4 Gy. FIG. 22A) γ-H2AX or p53 bp were imunolocalized at 4, 24, and 48 hours post radiation. Foci per nuclei were quantified (n=100). FIG. 22B) Comet assay was performed 30 minutes and 24 hours following irradiation. The tail moment was quantified (n=50). FIG. 22C) Cell cycle analysis was performed on 22Rv1 at 0, 4, 8, and 24 hours post radiation in the presence of IgG or TRC105 (n=3) in 3 independent experiments. (***p<0.001, ****p<0.0001).

[3] = tested on: SIRT1 expression in 22Rv1; test: Radiation induced SIRT1 mRNA expression; conditions: 4 Gy
Procedure: (§2) FIG. 21A) C4-2B were irradiated (0, 2, 4, or 6 Gy) and SIRT1 expression measured 72 hours post irradiation. FIG. 21B) C4-2B cells were irradiated (4 Gy) and SIRT1 expression measured 0, 0.5, 4, 8, 24, 48, and 72 hours post-radiation. FIG. 21C) 22Rv1 were pre-treated with 1 μg/ml IgG or TRC105 24 hours prior to irradiation with 4 Gy and compared for relative SIRT1 mRNA expression 72 hours after to irradiation. SIRT1 mRNA was normalized to GAPDH and to 0 Gy control.
(§3) Total RNA was extracted using the RNeasy kit (Qiagen). 1 μg RNA was used for cDNA synthesis using iSCRIPT cDNA synthesis kit (1708891, Bio-Rad). Quantitative RT-PCR was performed with 5 replicates using the Step One Real-Time PCR system (Applied Biosystems). Gene mRNA expression was normalized to GAPDH. Primer sequences can be found in the Table 1. For RNA-sequencing, Ion Proton AmpliSeq Transcriptome RNA Sequencing was performed achieving an average of 3M reads. We mapped an average of 88% of the reads to the human genome with Torrent Suite version 4.4.2.

[4] = tested on: SIRT1 expression in C4-2B; test: Radiation induced SIRT1 mRNA expression; conditions: irradiated
Procedure: as §2, §3

CW22Rv1 cells [5] = test: Cell cycle analysis after irradiation
Procedure: Within each group, the left column depicts G1, middle column depicts S and the right column depicts G2. […] All studies shown are 5 days after irradiation and/or 5 days of treatment with TRC105.
as §1

[6] = tested on: MTCO1 of complex-IV and NDUFB8 of complex-I in 22Rv1; test: Western blot of mitochondrial electron transport chain proteins; conditions: 4Gy+TRC105 vs radiation alone, 72 hours
Procedure: Lysate was collected 72 hours post irradiation for Western blot. FIG. 25A) Blots were probed for a cocktail of mitochondrial complex proteins. Protein levels of MTCO1 of complex-IV and NDUFB8 of complex-I were normalized to ponceau. […] Within each group, the first/left column depicts 0Gy+IgG, the second column depicts 0Gy+TRC105, the third column depicts 4Gy+IgG and the last/right column depicts 4Gy+TRC105. (**p<0.01, ***p<0.001)

TRC105: partially humanized monoclonal antibody that blocks BMP signaling; human-specific CD105 (endoglin) neutralizing antibody from Tracon Pharmaceuticals
mitochondrial dependent ATP production (CW22Rv1 cells [1]; TRC105 alone): depletion of mitochondrial dependent ATP production
spare respiratory capacity (CW22Rv1 cells [1]; TRC105 plus 4 Gy vs radiation alone): further decrease in spare respiratory capacity
basal oxidative phosphorylation (CW22Rv1 cells [1]; TRC105 plus 4 Gy vs radiation alone, 168 hours): decrease in basal oxidative phosphorylation
glycolysis (extracellular acidification) (CW22Rv1 cells [1]; addition of TRC105 in the context of radiation): blocked glycolysis
mitochondrial dependent ATP production (CW22Rv1 cells [1]; combination of radiation and TRC105 vs either agent alone): further depletion
epithelial proliferation, antibody alone ([2]; compared to IgG control, 1 μg/mL, 72 hours): did not change epithelial proliferation
enzalutamide-induced epithelial proliferation, single antibody ([2]; enzalutamide plus M1043 or TRC105): did not alter enzalutamide-induced epithelial proliferation
epithelial proliferation, enzalutamide with both M1043 and TRC105 ([2]; triple combination): restored epithelial proliferation to that of control
tail moment (22Rv1 cells; 30 minutes post radiation, p<0.001): significant increase in tail moment
tail moment (22Rv1 cells; after 24 hours): no significant difference
radiation induced SIRT1 expression [3]: abrogated radiation induced SIRT1 expression
radiation induced SIRT1 expression [4]: abrogated radiation induced SIRT1 expression
cell cycle distribution (CW22Rv1 cells [5]; 4 Gy plus TRC105, 0-24 hours): G2 cell cycle arrest that did not resolve by 24 hours
cell cycle, G2-phase (CW22Rv1 cells [5]; radiation combined with TRC105, 5 days): chronic up regulation of the G2-phase
mitochondrial electron transport chain proteins MTCO1 and NDUFB8 [6]: down-regulation of CIV-MTCO1 and CI-NDUF88; also recorded: significantly lower
